Tests used:
[1] = cited from earlier work
[2] = design: method as in Literature column of Supplementary table 4; conditions: value added to httk database; ref Supplementary table 4; cited from earlier work
HepaRG cells [3] = assay: High-content imaging assay: lipid accumulation (Bodipy lipid droplets); format: cell-based; conditions: HepaRG 24 h
[4] = design: method as in Hu et al. 1996; conditions: fraction unbound plasma; rabbit; ref Hu et al. 1996; cited from earlier work
HepaRG cells [5] = assay: cells; conditions: Homo sapiens, 24 h, read-out: NM: Benchmark concentration (µM) per imaging endpoint calculated with BMDS software
Protocol: (§1) Cellular responses were quantified using a high-content imaging approach (Fig. 1). Based on cell viability assessment, concentrations below the EC50 level were tested in the high-content imaging assay. After 24 h chemical exposure, live cells were incubated with CellROX, which reflects hydroxyl radi [...

[6] = IVIVE reverse dosimetry: oral equivalent dose (OED) from BMC; conditions: IVIVE derived median over all positive imaging endpoints; rabbit simulation (R script); Table 2
Source text: Human data were used except where otherwise stated. […]
mc_OED_MEN_LD <- calc_mc_oral_equiv(2.835, chem.cas="58-27-5", model = "3compartmentss",species = "Rabbit",return.samples = T, samples=1000, httkpop = T) mc_OED_MEN_NM <- calc_mc_oral_equiv(8.1, chem.cas="58-27-5", model = "3compartmentss",species = "Rabbit", return.samples = T, samples=1000, httkpop = T) quantile_OED_MEN_LD <- quantile(mc_OED_MEN_LD, c(0.05, 0.5, 0.95), na.rm = TRUE) quantile_OED_MEN_NM <- quantile(mc_OED_MEN_NM, c(0.05, 0.5, 0.95), na.rm = TRUE)

[7] = Published in vivo pharmacokinetics (Css, clearance); conditions: hepatocytes (back-calculated, no incubation); in vitro intrinsic hepatic clearance calculated from in vivo clearance with formula 3; rabbit; read-out: Calculated Clint (ul/min/10^6 cells)
Source text: For the model evaluation, Css of selected reference chemicals were predicted using formula 1 with the same dose rate from the in vivo Css measurements. For chemicals with no in vitro intrinsic hepatic clearance and fraction unbound values available in the database included in the httk package, in silico predictions from (Sipes et al. [2017]) were loaded using load_sipes2017(). […]. The formula to calculate Clint was derived from the function calc_hepatic_clearance within the httk package. Predicted Css values were then compared to published in vivo Css values. If there was no published in vivo Css available, Css was then calculated based on published in vivo pharmacokinetic parameters using the following formula (Supplementary table 3)4 Css(mg/L)=(Dose×F)/(Cl×dosinginterval)
Supplementary table 3. Comparison of benchmark concentration and predicted Css with published pharmacokinetic values. Where indicated, in vivo derived Css values were calculated using following formula: Css = (Dose*F)/(Cl*dosing interval) or Css = k0/Cl with F = bioavailability, Cl = clearance, k0 = infusion rate and Css = steady state concentration.

HepaRG cells [8] = conditions: HepaRG 24 h, population level; threshold ± 2 standard deviations of the response at the two lowest concentrations
HepaRG cells [9] = conditions: HepaRG 24 h
Protocol: as §1

HepaRG cells [10] = assay: Cell viability assessment (WST-1 assay); format: cell-based, human; conditions: Homo sapiens, 24 h exposure, reference chemicals, 95% CI in brackets, read-out: EC50 µM (95% CI) from cell viability (WST-1)
Source text: Undifferentiated HepaRG cells were purchased from Biopredic international (Saint Grégoire, France). HepaRG cells have unlimited growth capacity and phenotypic stability, stable enzymatic activities over 4 weeks of cultivation, and similar metabolic function to primary human hepatocytes, and also avoid limitations of primary cells such as donor variability and phenotypic instability (Aninat et al. [2006]; Guillouzo et al. [2007]; Lambert et al. [2009]; Lübberstedt et al. [2011]; Andersson et al. [2012]). The line contains two cell types, hepatocyte-like and cholangiocyte-like cells (Parent et al. [2004]), which allows for elucidation of cell-specific toxicity (Jossé et al. [2008]). Cells were seeded at a density of approximately 27′000 cells/cm^2 into a 150 × 25 mm petri dish and were cultured for 2 weeks in William’s E medium (cat. nr.: 32,551,020, ThermoFisher Scientific, Massachusetts, USA) supplemented with 2 mM glutamine, 10% (v/v) fetal bovine serum (FBS) good forte (cat. nr.: P40-47,500, PAN-Biotech, Aidenbach, Germany), 100 U/ml penicillin and 100 µg/ml streptomycin (cat. nr.: 15,140,122, ThermoFisher Scientific, Massachusetts, USA), 5 µg/ml Gibco recombinant AOF insulin (cat. nr.: A11382II, ThermoFisher Scientific, Massachusetts, USA) and 50 µM hydrocortisone hemisuccinate (cat. nr.: H4881, Sigma-Aldrich, St. Louis, USA) at 37 °C and 5% CO2. Differentiation was induced by culturing the cells for another 2 weeks in the above mentioned medium supplemented with 1.7% DMSO. After 4 weeks in culture, differentiated HepaRG cells were seeded at a high density of approximately 227′000 cells/cm^2 (72,000 cells/well with 100 µl per well) into black 96-well plates with a clear bottom (cat.nr.: 3603, Corning, New York, USA) and maintained for 10 days. After 10 days, cells were first adapted to treatment medium (culture medium containing 0.5% DMSO and 2% FBS) for 48 h and then used for cell viability and high-content imaging analysis.
Cell viability was analyzed using the WST-1 assay which is based on the measurement of mitochondrial dehydrogenase activity (cat. nr: ab155902, Abcam, Cambridge, UK). HepaRG cells were exposed to chemicals at defined concentrations for 24 h. Triton X-100 (0.01%) was a positive control. One hour before the end of incubation period, 10 µl of WST-1 reagent was added to each well, quickly mixed by shaking the plate, and returned to the cell culture incubator (37 °C, 5% CO2). After 1 h, absorbance was measured (450 nm, reference wavelength 620 nm) using a plate reader (Infinite M200 Pro, Tecan group, Männerdorf, Switzerland). Absorbance was then subtracted from the reference wavelength, corrected for background by subtracting values measured without cells, and then normalized to the solvent control, which was set to 100%. Dose–response data were fitted using drc package (Version 3.0.1) (Ritz et al. [2015]) in R 3.6.1. Data were from at least 3 independent experiments with 6 technical replicates per condition.

Q: Which results are given for `CC1=CC(=O)c2ccccc2C1=O` [menadione]?
A: In vivo Css (µM) ([1]; in rabbits, reference cell empty): 12.6^4 µM; In vivo clearance ([1]; rabbit, ref Hu et al. 1996): 49.32 L/h; LogP [2]: 2.2; Lipid accumulation response (in words) (HepaRG cells [3]; population level, threshold ± 2 standard deviations of the response at the two lowest concentrations): increased in a dose-dependent manner; EC (BMC, 1 SD from control) (HepaRG cells [3]; Homo sapiens, lipid accumulation, Supplementary table 3, read-out: LA: Benchmark concentration (µM) per imaging endpoint calculated with BMDS software): 2.8 µM; Fup [4]: 0.2; EC (BMC) (HepaRG cells [5]): 8.1 µM; OED [6]: 55.4 mg/kg/day; hepatocyte CLint [7]: 58.3 µL/min/1e6 cells; Oxidative stress response (in words) (HepaRG cells [8]): unexpected negative outcomes; Concentration at which increase of number of apoptotic cells (nuclear morphology) exceeded the threshold (HepaRG cells [9]): 25 µM; EC50 (HepaRG cells [10]): 59.1 µM
